Laboratory results as given in patent publication US8815857B2 (Boehringer Ingelheim International GmbH, priority 2011, dated 2014).
≈ marks a conversion by molar mass, not a printed value.

How the values were obtained:
[1] = target: T1, human soluble guanylate cyclase alpha 1 and beta 1 subunits (sGC) stably expressed in Chinese hamster ovary cells (Homo sapiens, UniProt Q02108+Q02153); test: sGC cellular activator assay: cGMP in CHO cells expressing human sGC, preincubated with ODQ; assay type: cell-based; details: 40 microM ODQ preincubation, 30 min at room temperature, presence or absence of 50% human serum not given, read-out: EC50 nM, Activity of Compounds in Cellular Assay
T1 construct: expressed in transfected cells; host or cells: Chinese hamster ovary cells, stably transfected
T1 sequence (Q02108 1-690 partner): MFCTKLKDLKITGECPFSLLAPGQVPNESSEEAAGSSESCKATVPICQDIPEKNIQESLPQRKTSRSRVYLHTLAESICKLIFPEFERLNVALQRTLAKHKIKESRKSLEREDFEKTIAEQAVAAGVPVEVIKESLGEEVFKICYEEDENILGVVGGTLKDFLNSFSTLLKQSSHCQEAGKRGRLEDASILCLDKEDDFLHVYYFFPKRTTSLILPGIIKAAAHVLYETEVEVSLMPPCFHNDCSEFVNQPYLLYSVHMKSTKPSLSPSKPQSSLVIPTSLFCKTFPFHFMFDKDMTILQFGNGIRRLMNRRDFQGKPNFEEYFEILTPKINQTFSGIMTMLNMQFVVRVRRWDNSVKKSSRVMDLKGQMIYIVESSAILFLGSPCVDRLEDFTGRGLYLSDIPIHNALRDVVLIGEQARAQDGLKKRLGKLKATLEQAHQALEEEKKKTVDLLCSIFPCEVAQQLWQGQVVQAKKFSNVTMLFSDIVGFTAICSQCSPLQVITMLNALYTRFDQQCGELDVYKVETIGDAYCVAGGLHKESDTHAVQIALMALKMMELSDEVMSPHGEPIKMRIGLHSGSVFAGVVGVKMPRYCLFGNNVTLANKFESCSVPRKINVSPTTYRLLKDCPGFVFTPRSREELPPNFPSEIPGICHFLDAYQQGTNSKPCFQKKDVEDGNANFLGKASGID
T1 sequence (Q02153 1-619): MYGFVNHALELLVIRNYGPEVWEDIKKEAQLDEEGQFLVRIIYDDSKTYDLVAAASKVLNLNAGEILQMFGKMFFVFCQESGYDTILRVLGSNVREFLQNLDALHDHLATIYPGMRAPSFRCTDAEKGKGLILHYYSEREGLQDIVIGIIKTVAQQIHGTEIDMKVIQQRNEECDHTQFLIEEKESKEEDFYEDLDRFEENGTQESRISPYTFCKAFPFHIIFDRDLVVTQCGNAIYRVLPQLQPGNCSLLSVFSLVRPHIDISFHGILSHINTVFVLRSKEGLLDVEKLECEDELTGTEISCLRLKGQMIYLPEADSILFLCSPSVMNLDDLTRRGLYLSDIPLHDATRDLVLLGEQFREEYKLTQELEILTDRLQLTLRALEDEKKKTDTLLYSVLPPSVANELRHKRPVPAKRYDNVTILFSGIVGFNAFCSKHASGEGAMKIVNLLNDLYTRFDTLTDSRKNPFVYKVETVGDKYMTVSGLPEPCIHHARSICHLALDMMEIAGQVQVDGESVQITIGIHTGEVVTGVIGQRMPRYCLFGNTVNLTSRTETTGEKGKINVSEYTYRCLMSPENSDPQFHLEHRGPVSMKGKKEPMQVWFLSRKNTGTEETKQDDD
In short: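 EC50 values derive from HTRF cGMP measurement after test compounds act for thirty minutes at room temperature, with or without 50% human serum. Before dosing, the sGC-transfected CHO cells spend one hour with the inhibitor ODQ (40 microM) in IBMX- and 0.1% BSA-containing buffer.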

[2] = Assessment of solubility: HT solubility in pION buffer, UV spectrophotometry; details: kinetic from dmso stock
[3] = pH 6.8, aqueous buffer, Solubility (pH 6.8), pH 6.8
[4] = pION system solution buffer, pH 4.5, pH 4.5, aqueous buffer, Solubility (pH 4.5), pH 4.5 buffer, 16-19 h incubation, 1.0% DMSO
[5] = pION system solution buffer, pH 7.4, pH 7.4, aqueous buffer, Solubility (pH 7.4), pH 7.4 buffer, 16-19 h incubation, 1.0% DMSO

Compound	EC50 [1]	solubility [2, 3]	solubility [2, 4]	solubility [2, 5]
Cc1ccc(OCc2ccc(C(=O)N3CC[C@H](O)C3)cc2C)c(-c2csc(N3C[C@H]4CC[C@@H](C3)[C@H]4C(=O)O)n2)c1 [Compound 313]	120 nM	78 µg/mL (≈ 139 µM)	1.3 µg/mL (≈ 2.31 µM)	
Cc1ccc(OCc2ccc(C(=O)N3CCCOCC3)cc2C)c(-c2csc(N3C[C@H]4CC[C@@H](C3)[C@H]4C(=O)O)n2)c1 [Compound 316]	15 nM	64 µg/mL (≈ 111 µM)	< 0.1 µg/mL	
Cc1ccc(OCc2ccc(C(=O)N3CCC(F)(F)CC3)cc2C)c(-c2csc(N3C[C@H]4CC[C@@H](C3)[C@H]4C(=O)O)n2)c1 [Compound 317]	20 nM	41 µg/mL (≈ 68.8 µM)	< 0.1 µg/mL	
Cc1ccc(OCc2ccc(C(=O)N(C)Cc3ccnn3C)cc2C)c(-c2csc(N3C[C@H]4CC[C@@H](C3)[C@H]4C(=O)O)n2)c1 [Compound 318]	66 nM	34 µg/mL (≈ 56.7 µM)	< 0.1 µg/mL	> 53 µg/mL
Cc1ccc(OCc2ccc(C(=O)N3CCC(F)(F)C3)cc2C)c(-c2csc(N3C[C@H]4CC[C@@H](C3)[C@H]4C(=O)O)n2)c1 [Compound 320]	15 nM	36 µg/mL (≈ 61.9 µM)	< 0.1 µg/mL	
COC1CCN(C(=O)c2ccc(COc3ccc(C)cc3-c3csc(N4C[C@H]5CC[C@@H](C4)[C@H]5C(=O)O)n3)c(C)c2)CC1 [Compound 321]	55 nM	41 µg/mL (≈ 69.5 µM)	0.13 µg/mL (≈ 0.22 µM)	
COC1CCCN(C(=O)c2ccc(COc3ccc(C)cc3-c3csc(N4C[C@H]5CC[C@@H](C4)[C@H]5C(=O)O)n3)c(C)c2)C1 (some centres unmarked) [Compound 322]	19 nM	42 µg/mL (≈ 71.2 µM)	0.15 µg/mL (≈ 0.254 µM)	
Cc1ccc(OCc2ccc(C(=O)N3CCC(C#N)CC3)cc2C)c(-c2csc(N3C[C@H]4CC[C@@H](C3)[C@H]4C(=O)O)n2)c1 [Compound 323]	51 nM	39 µg/mL (≈ 66.7 µM)	< 0.1 µg/mL	
Cc1ccc(OCc2ccc(C(=O)N(C)CC#N)cc2C)c(-c2csc(N3C[C@H]4CC[C@@H](C3)[C@H]4C(=O)O)n2)c1 [Compound 330]	52 nM	40 µg/mL (≈ 73.4 µM)	< 0.1 µg/mL	
Cc1ccc(OCc2ccc(C(=O)N3CCn4cnnc4C3)cc2C)c(-c2csc(N3C[C@H]4CC[C@@H](C3)[C@H]4C(=O)O)n2)c1 [Compound 333]	110 nM	59 µg/mL (≈ 98.5 µM)	1.1 µg/mL (≈ 1.84 µM)	
Cc1ccc(OCc2ccc(C(=O)N3CCCC(C)(O)C3)cc2C)c(-c2csc(N3C[C@H]4CC[C@@H](C3)[C@H]4C(=O)O)n2)c1 (some centres unmarked) [Compound 336]	79 nM	6.1 µg/mL (≈ 10.3 µM)	0.16 µg/mL (≈ 0.271 µM)	
Cc1ccc(OCc2ccc(C(=O)N3CCCC(C#N)C3)cc2C)c(-c2csc(N3C[C@H]4CC[C@@H](C3)[C@H]4C(=O)O)n2)c1 (some centres unmarked) [Compound 337]	14 nM	1.5 µg/mL (≈ 2.57 µM)	< 0.1 µg/mL	
COCCCN(C)C(=O)c1ccc(COc2ccc(C)cc2-c2csc(N3C[C@H]4CC[C@@H](C3)[C@H]4C(=O)O)n2)c(C)c1 [Compound 338]	43 nM	58 µg/mL (≈ 100 µM)	0.13 µg/mL (≈ 0.225 µM)	
Cc1ccc(OCc2ccc(C(=O)N(C)Cc3nccn3C)cc2C)c(-c2csc(N3C[C@H]4CC[C@@H](C3)[C@H]4C(=O)O)n2)c1 [Compound 339]	41 nM	48 µg/mL (≈ 80 µM)	32 µg/mL (≈ 53.4 µM)	

Now from value to compound:

EC50 [1]	solubility [2, 3]	solubility [2, 4]	solubility [2, 5]	Compound
20 nM	66 µg/mL (≈ 112 µM)	0.88 µg/mL (≈ 1.49 µM)		Cc1ccc(OCc2ccc(C(=O)N3CCN(C)C(=O)C3)cc2C)c(-c2csc(N3C[C@H]4CC[C@@H](C3)[C@H]4C(=O)O)n2)c1 [Compound 308]
42 nM	63 µg/mL (≈ 107 µM)	< 0.1 µg/mL		Cc1ccc(OCc2ccc(C(=O)N3CCC(CO)CC3)cc2C)c(-c2csc(N3C[C@H]4CC[C@@H](C3)[C@H]4C(=O)O)n2)c1 [Compound 309]
99 nM	61 µg/mL (≈ 104 µM)	59 µg/mL (≈ 100 µM)		Cc1ccc(OCc2ccc(C(=O)N3CC[C@@H](N(C)C)C3)cc2C)c(-c2csc(N3C[C@H]4CC[C@@H](C3)[C@H]4C(=O)O)n2)c1 [Compound 310]
29 nM	63 µg/mL (≈ 107 µM)	58 µg/mL (≈ 98.5 µM)		Cc1ccc(OCc2ccc(C(=O)N3CC[C@H](N(C)C)C3)cc2C)c(-c2csc(N3C[C@H]4CC[C@@H](C3)[C@H]4C(=O)O)n2)c1 [Compound 311]
35 nM	13 µg/mL (≈ 22.6 µM)	0.26 µg/mL (≈ 0.452 µM)		Cc1ccc(OCc2ccc(C(=O)N3CCC[C@@H](O)C3)cc2C)c(-c2csc(N3C[C@H]4CC[C@@H](C3)[C@H]4C(=O)O)n2)c1 [Compound 312]
63 nM	68 µg/mL (≈ 118 µM)	2.4 µg/mL (≈ 4.18 µM)		Cc1ccc(OCc2ccc(C(=O)N3CCNC(=O)C3)cc2C)c(-c2csc(N3C[C@H]4CC[C@@H](C3)[C@H]4C(=O)O)n2)c1 [Compound 314]
57 nM	54 µg/mL (≈ 90 µM)	< 0.1 µg/mL	> 60 µg/mL	Cc1ccc(OCc2ccc(C(=O)N(C)Cc3cnn(C)c3)cc2C)c(-c2csc(N3C[C@H]4CC[C@@H](C3)[C@H]4C(=O)O)n2)c1 [Compound 315]
70 nM	12 µg/mL (≈ 20.8 µM)	0.23 µg/mL (≈ 0.399 µM)		Cc1ccc(OCc2ccc(C(=O)N3CCC[C@H](O)C3)cc2C)c(-c2csc(N3C[C@H]4CC[C@@H](C3)[C@H]4C(=O)O)n2)c1 [Compound 319]
66 nM	73 µg/mL (≈ 129 µM)	0.92 µg/mL (≈ 1.63 µM)		Cc1ccc(OCc2ccc(C(=O)N(C)CCCO)cc2C)c(-c2csc(N3C[C@H]4CC[C@@H](C3)[C@H]4C(=O)O)n2)c1 [Compound 324]
29 nM	59 µg/mL (≈ 102 µM)	0.17 µg/mL (≈ 0.295 µM)		Cc1ccc(OCc2ccc(C(=O)N3CC[C@H](CO)C3)cc2C)c(-c2csc(N3C[C@H]4CC[C@@H](C3)[C@H]4C(=O)O)n2)c1 [Compound 325]
61 nM	65 µg/mL (≈ 113 µM)	0.21 µg/mL (≈ 0.365 µM)		Cc1ccc(OCc2ccc(C(=O)N3CC[C@@H](CO)C3)cc2C)c(-c2csc(N3C[C@H]4CC[C@@H](C3)[C@H]4C(=O)O)n2)c1 [Compound 326]
14 nM	71 µg/mL (≈ 119 µM)	< 0.1 µg/mL		Cc1ccc(OCc2ccc(C(=O)N3CCn4ncnc4C3)cc2C)c(-c2csc(N3C[C@H]4CC[C@@H](C3)[C@H]4C(=O)O)n2)c1 [Compound 327]
29 nM	62 µg/mL (≈ 108 µM)	< 0.1 µg/mL		CO[C@H]1CCN(C(=O)c2ccc(COc3ccc(C)cc3-c3csc(N4C[C@H]5CC[C@@H](C4)[C@H]5C(=O)O)n3)c(C)c2)C1 [Compound 328]
23 nM	56 µg/mL (≈ 97.3 µM)	< 0.1 µg/mL		CO[C@@H]1CCN(C(=O)c2ccc(COc3ccc(C)cc3-c3csc(N4C[C@H]5CC[C@@H](C4)[C@H]5C(=O)O)n3)c(C)c2)C1 [Compound 329]
140 nM	47 µg/mL (≈ 78.4 µM)	42 µg/mL (≈ 70 µM)		Cc1ccc(OCc2ccc(C(=O)N(C)Cc3cncn3C)cc2C)c(-c2csc(N3C[C@H]4CC[C@@H](C3)[C@H]4C(=O)O)n2)c1 [Compound 331]
30 nM	35 µg/mL (≈ 59.3 µM)	0.14 µg/mL (≈ 0.237 µM)		CCOC1CCN(C(=O)c2ccc(COc3ccc(C)cc3-c3csc(N4C[C@H]5CC[C@@H](C4)[C@H]5C(=O)O)n3)c(C)c2)C1 (some centres unmarked) [Compound 332]
160 nM	24 µg/mL (≈ 41 µM)	11 µg/mL (≈ 18.8 µM)		Cc1ccc(OCc2ccc(C(=O)N(C)Cc3ncc[nH]3)cc2C)c(-c2csc(N3C[C@H]4CC[C@@H](C3)[C@H]4C(=O)O)n2)c1 [Compound 334]
70 nM	49 µg/mL (≈ 84.8 µM)	0.4 µg/mL (≈ 0.692 µM)		CCOCCN(C)C(=O)c1ccc(COc2ccc(C)cc2-c2csc(N3C[C@H]4CC[C@@H](C3)[C@H]4C(=O)O)n2)c(C)c1 [Compound 335]
